A short description of assay [1]: growth inhibition of CAPAN-1 cells, dose response, cell-based, imaging, dry powder, set 2 (AID 743275). The settings on record: CAPAN-1 cell number, Hoechst imaging, 14 days.
Assay [2] has as its system CAPAN-1 cell number, Hoechst imaging, 14 days. The description is as above.

In general, AC50 refers to the midpoint of the concentration-response curve, whichever way the signal moves.

Inconclusive results are not listed. Activity calls are given as the source filed them.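 Rule for the calls: active = compounds cutting cell count with a fitted half-maximal dose below twice the top dose, in every run; inconclusive = runs disagree, flat partial cut, or poor curve fit; inactive = every run called inactive.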

As to `CCCNc1nc(Cl)nc(NCc2cccnc2)n1`, the activity change, negative = inhibition in assay [1] (at 50 µM (top of the series)) is 4.33% (inactive).

On to `COc1ccc(C2NCCc3c2[nH]c2ccccc32)cc1COc1ccc(F)cc1` (stereo not given), for which the AC50 in assay [2] is 15.2 µM.

Turning to `COc1ccc(-c2nn(C)c3sc(C(=O)NCCCN4CCOCC4)cc23)cc1OC`, the activity change, negative = inhibition in assay [1] (at 50 µM (top of the series)) was -37% (inactive).

As for `COc1ccc(OC)c(Nc2nc(NCCCO)c3ccccc3n2)c1`, in assay [2], the AC50 is 24.6 µM.

As to `COc1nc(NCc2ccccc2)nc(NCc2cccnc2)n1`, the activity change, negative = inhibition in assay [1] (at 50 µM (top of the series)) is -3.86% (inactive).

As to `CN(C)CCCN(C(=O)c1nc2ccccc2s1)c1nc2ccc(F)cc2s1`, in assay [1] (at 50 µM (top of the series)), the activity change, negative = inhibition was -18.3% (inactive).

On to `CN1CCN(CC(=O)Nc2c(C(=O)c3ccccc3)oc3ccccc23)CC1`, for which the activity change, negative = inhibition in assay [1] (at 50 µM (top of the series)) is -11.9% (inactive).

As to `CCCNc1nc(NCc2cccnc2)nc(N2CCOCC2)n1`, in assay [2], the AC50 is 26.5 µM.

For `CN(C)CCCN(C(=O)c1ccc(C(=O)c2ccccc2)cc1)c1nc2cc3c(cc2s1)OCO3`, the AC50 in assay [2] was 30 µM.

As to `c1ccc(-c2cc(N3CCN(CCN4CCCC4)CC3)n3nccc3n2)cc1`, the activity change, negative = inhibition in assay [1] (at 50 µM (top of the series)) is -9.44% (inactive).

As for `OCCNc1nc(Nc2ccccc2F)nc2ccccc12`, the activity change, negative = inhibition in assay [1] (at 50 µM (top of the series)) was 25.7% (inactive).

Regarding `CCNC(=O)Nc1ccc2nc(N3CCN(C)CC3)cc(C)c2c1`, the activity change, negative = inhibition in assay [1] (at 50 µM (top of the series)) is 20.3% (inactive).

For `CCCN(CCC)CCCNC(=S)Nc1ccc2nc(N3CCN(CC)CC3)cc(C)c2c1`, the activity change, negative = inhibition in assay [1] (at 50 µM (top of the series)) was -17.4% (inactive).

For the molecule `CN(C)CCCNC(=S)NCC(c1ccc(Cl)cc1Cl)c1c[nH]c2ccccc12` (stereo not given), the AC50 in assay [2] was 17.7 µM.

`Cc1ccc2sc(N(CCCN(C)C)C(=O)c3ccc(S(=O)(=O)N(C)C4CCCCC4)cc3)nc2c1C`: the AC50 in assay [2] is 34.7 µM.

With `COc1ccccc1Nc1nc(NCCO)c2ccccc2n1`, the activity change, negative = inhibition in assay [1] (at 50 µM (top of the series)) is -17.4% (inactive).

As to `CCCN1CCN(CCCNC(=S)Nc2ccc3nc(N4CCN(CC)CC4)cc(C)c3c2)CC1`, the activity change, negative = inhibition in assay [1] (at 50 µM (top of the series)) is 0.584% (inactive).

As for `Cc1cc(C)c2sc(N(CCCN(C)C)C(=O)CN3C(=O)c4ccccc4C3=O)nc2c1`, the AC50 in assay [2] is 26 µM.

Regarding `Cc1cc(N2CCN(C)CC2)nc2ccc(NC(=S)N3CCN(c4ccc(Cl)cc4)CC3)cc12`, in assay [1] (at 26 µM (top of the series)), the activity change, negative = inhibition is 16.1% (inactive).

With `Cc1cc(N2CCN(C)CC2)nc2ccc(NC(=S)NCCCN3CCN(C)CC3)cc12`, the activity change, negative = inhibition in assay [1] (at 50 µM (top of the series)) is 14.2% (inactive).

As to `Cc1ccc2sc(N(CCCN(C)C)C(=O)c3ccc(S(=O)(=O)N(C)Cc4ccccc4)cc3)nc2c1C`, the AC50 in assay [2] is 20.4 µM.

`COc1cc2ccccc2cc1C(=O)N(CCN(C)C)c1nc2c(OC)ccc(OC)c2s1`: in assay [2], the AC50 was 33.3 µM.

With `O=c1c2c(-c3ccccc3)csc2nc2c3ccccc3c(NCCN3CCOCC3)nn12`, the activity change, negative = inhibition in assay [1] (at 50 µM (top of the series)) is -2.92% (inactive).

Consider `Cc1cc(C)c2c(c1)c1nnc(SCCN3CCCCC3)nc1n2C`, for which the activity change, negative = inhibition in assay [1] (at 50 µM (top of the series)) is 6.3% (inactive).

For the molecule `CN(C)c1ccc(Nc2nc(N)c3ccccc3n2)cc1`, the activity change, negative = inhibition in assay [1] (at 50 µM (top of the series)) was -26.6% (inactive).

Regarding `Cc1nccn1Cc1ccc(NC(=O)c2cccc(NC(=O)c3cccnc3)c2)cc1`, in assay [1] (at 50 µM (top of the series)), the activity change, negative = inhibition was 12.8% (inactive).

Consider `Cc1c(C(=O)Nc2ccc(S(=O)(=O)N(C)C3CCN(C)CC3)cc2)oc2c(Cl)cccc12`, for which, in assay [2], the AC50 is 24.1 µM.

For `CN1CCN(CCCNC(=O)c2cc3c(-c4ccc(Cl)cc4)nn(C)c3s2)CC1`, the AC50 in assay [2] is 7.4 µM.

Turning to `COc1ccc(OC)c(Nc2nc(NCCO)c3ccccc3n2)c1`, the AC50 in assay [2] was 30.2 µM.

As for `COc1ccc2oc(C(=O)c3ccccc3)c(NC(=O)CN3CCN(C)CC3)c2c1`, in assay [2], the half-maximal activity concentration (AC50) was 38.3 µM.

As for `C=C1Nc2cc(-c3ccc(Cl)cc3)nn2C(NCCN(C)C)=C1C`, the AC50 in assay [2] is 31.6 µM.

With `CN(CCCN1CCOCC1)c1cc(-c2ccc(F)cc2)nc2ccnn12`, the activity change, negative = inhibition in assay [1] (at 50 µM (top of the series)) was -17.6% (inactive).

Regarding `CCN1CCN(c2cc(C)c3cc(NC(=O)c4ccccn4)ccc3n2)CC1`, the AC50 in assay [2] was 40.8 µM.

Turning to `COc1ccc(-c2oc3ncnc(NCCCN4CCOCC4)c3c2-c2ccc(OC)cc2)cc1`, in assay [1] (at 50 µM (top of the series)), the activity change, negative = inhibition was 20.8% (inactive).

`CCCCN(CC)CCCNC(=S)Nc1ccc2nc(N3CCN(C)CC3)cc(C)c2c1`: in assay [2], the AC50 was 44.9 µM.

As for `Cn1nc(-c2ccc(Cl)cc2)c2cc(C(=O)NCCCN3CCCC3)sc21`, the AC50 in assay [2] was 15.8 µM.

As for `Cc1cc(N2CCN(C)CC2)nc2ccc(NC(=S)NCCCN3CCc4ccccc4C3)cc12`, the activity change, negative = inhibition in assay [1] (at 50 µM (top of the series)) was 5.99% (inactive).

Consider `CCN(CC)CCNc1nc(SC)nc2sc3c(c12)CCN(C)C3`, for which the activity change, negative = inhibition in assay [1] (at 50 µM (top of the series)) was 7.64% (inactive).

Regarding `c1ccc(-c2cc(N3CCC(N4CCCC4)CC3)n3nccc3n2)cc1`, the activity change, negative = inhibition in assay [1] (at 50 µM (top of the series)) is 15.5% (inactive).

For `CCCCN(CC)CCNC(=O)c1cc2c(-c3ccc(Cl)cc3)nn(C)c2s1`, the AC50 in assay [2] was 12.6 µM.

As to `Cc1ccc(-c2nc(C(=O)NCCCN3CCOCC3)cc3c2[nH]c2ccccc23)cc1`, in assay [2], the AC50 was 30.8 µM.

As to `CN(C)CCCNC(=S)N(CCN(C)C)Cc1cc2cc3c(cc2[nH]c1=O)OCCO3`, the activity change, negative = inhibition in assay [1] (at 50 µM (top of the series)) is -7.72% (inactive).

On to `Cn1nc(-c2ccc(Cl)cc2)c2cc(C(=O)NCCCN3CCCCCC3)sc21`, for which the AC50 in assay [2] is 23.9 µM.

For `Cc1ccc(C(=O)c2oc3ccccc3c2NC(=O)CN2CCN(C)CC2)cc1`, the activity change, negative = inhibition in assay [1] (at 50 µM (top of the series)) is 9.01% (inactive).

Turning to `CC1(C)CC(NC(=O)c2ccc(Cl)c(S(=O)(=O)N(Cc3ccccc3)c3ccccc3)c2)CC(C)(C)N1`, in assay [2], the AC50 is 22.1 µM.

`CN1CCN(c2ccc(NC(=O)c3cc(S(N)(=O)=O)ccc3N3CCOCC3)cc2)CC1`: the activity change, negative = inhibition in assay [1] (at 50 µM (top of the series)) was 4.65% (inactive).

Consider `CCN(CC)CCCN(Cc1cc2cc3c(cc2[nH]c1=O)OCO3)C(=S)NCCCN(C)C`, for which, in assay [1] (at 50 µM (top of the series)), the activity change, negative = inhibition was 15% (inactive).

Turning to `CCN1CCN(C(=S)Nc2ccc3nc(N4CCN(C)CC4)cc(C)c3c2)CC1`, the AC50 in assay [2] is 26.7 µM.

Turning to `COc1ccc2nc(NCCNC(=S)NCCCN3CCOCC3)c(C#N)cc2c1`, the activity change, negative = inhibition in assay [1] (at 26 µM (top of the series)) was -10.2% (inactive).

For the molecule `CCN(CC)CCNC(=S)Nc1ccc2nc(N3CCN(CC)CC3)cc(C)c2c1`, the AC50 in assay [2] is 31.9 µM.

`CCN(CC)CCN(C(=O)C1=COCCO1)c1nc2c(OC)ccc(OC)c2s1`: the AC50 in assay [2] is 48.6 µM.

For `Cc1ccc2nc(-c3ccc(NC(=S)NC4CC(C)(C)NC(C)(C)C4)cc3)sc2c1`, the AC50 in assay [2] was 23.6 µM.

As for `CN1CCCN(c2cc(-c3ccccc3)nc3ccnn23)CC1`, the activity change, negative = inhibition in assay [1] (at 50 µM (top of the series)) was -7.07% (inactive).

For `c1ccc(CNc2nc(NCc3ccccc3)c3ccccc3n2)cc1`, the AC50 in assay [2] is 7.8 µM.

As for `OCCNc1nc(Nc2ccccc2Cl)nc2ccccc12`, the AC50 in assay [2] is 23.9 µM.
